ChEMBL document CHEMBL1144282, “Synthesis and SAR of 5,6-diarylpyridines as human CB1 inverse agonists” (Bioorg Med Chem Lett, 2005)
pIC50: −log10 of the molar value.

Experiments:
Cannabinoid receptor 2 = Cannabinoid receptor 2 (Homo sapiens, UniProt P34972)
Description: Inhibitory concentration tested against human Cannabinoid receptor 2 (hCB2)

in vivo [1] = details: rat, iv, 1 mg/kg
Description: Volume of distribution at steady state was determined in rat after intravenous administration of 1 mg/kg compound

in vivo [2] = details: rat, iv, 1 mg/kg; remark: listed apart in the source
Description: Half life period was determined in rat after intravenous administration of 1 mg/kg compound

in vivo [3] = details: rat, iv, 1 mg/kg; remark: listed apart in the source
in vivo [4] = details: rat, po, 2 mg/kg

Cannabinoid receptor 2, sequence (P34972 whole entry): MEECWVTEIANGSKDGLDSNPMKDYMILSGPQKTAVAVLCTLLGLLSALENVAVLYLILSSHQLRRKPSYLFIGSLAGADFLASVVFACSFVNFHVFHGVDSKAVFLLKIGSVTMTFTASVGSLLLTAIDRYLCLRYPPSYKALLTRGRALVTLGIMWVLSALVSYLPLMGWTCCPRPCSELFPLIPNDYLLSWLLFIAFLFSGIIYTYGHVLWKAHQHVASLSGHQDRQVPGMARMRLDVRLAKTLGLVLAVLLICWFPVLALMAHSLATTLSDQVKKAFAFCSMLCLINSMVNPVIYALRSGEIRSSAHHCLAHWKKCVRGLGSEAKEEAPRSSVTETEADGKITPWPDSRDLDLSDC

CCCNC(=O)c1cc(-c2ccc(Cl)cc2)c(-c2ccc(Cl)cc2Cl)nc1OCc1ccc(F)c(F)c1
pIC50 (Cannabinoid receptor 2): 6.09
Vd (in vivo [1]): 0.4 L/kg
half-life (in vivo [2]): 2.5 h
clearance (in vivo [3]): 0.348 L/h/kg
bioavailability (in vivo [4]): 12%
